Measured values from patent US10308639B2, “Phosphatidylinositol 3-kinase inhibitors” (Gilead Sciences, Inc., priority 2014, dated 2019).
Where two headings read alike, the source gives them in different places.

What was measured:
Format in all cases: biochemical
[1] = target: T1, PI3Kβ (Homo sapiens, UniProt P42338); assay: TR-FRET enzymatic activity assay, PI3Kβ
T1 construct: made in house

[2] = target: T2, PI3Kδ (Homo sapiens, UniProt O00329); assay: TR-FRET enzymatic activity assay, PI3Kδ
T2 construct: made in house

[3] = target: T3, PI3Kγ (Homo sapiens, UniProt P48736); assay: TR-FRET enzymatic activity assay, PI3Kγ; conditions: read-out: PI3Kγ IC50
T3 construct: made in house
Summary of the method: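 TR-FRET read-out of enzyme activity, run separately for each PI3K isoform.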

[4] = Table 2, TR-FRET, 2x Km ATP, 30 minutes at 25° C.

T3 sequence (P48736 whole entry): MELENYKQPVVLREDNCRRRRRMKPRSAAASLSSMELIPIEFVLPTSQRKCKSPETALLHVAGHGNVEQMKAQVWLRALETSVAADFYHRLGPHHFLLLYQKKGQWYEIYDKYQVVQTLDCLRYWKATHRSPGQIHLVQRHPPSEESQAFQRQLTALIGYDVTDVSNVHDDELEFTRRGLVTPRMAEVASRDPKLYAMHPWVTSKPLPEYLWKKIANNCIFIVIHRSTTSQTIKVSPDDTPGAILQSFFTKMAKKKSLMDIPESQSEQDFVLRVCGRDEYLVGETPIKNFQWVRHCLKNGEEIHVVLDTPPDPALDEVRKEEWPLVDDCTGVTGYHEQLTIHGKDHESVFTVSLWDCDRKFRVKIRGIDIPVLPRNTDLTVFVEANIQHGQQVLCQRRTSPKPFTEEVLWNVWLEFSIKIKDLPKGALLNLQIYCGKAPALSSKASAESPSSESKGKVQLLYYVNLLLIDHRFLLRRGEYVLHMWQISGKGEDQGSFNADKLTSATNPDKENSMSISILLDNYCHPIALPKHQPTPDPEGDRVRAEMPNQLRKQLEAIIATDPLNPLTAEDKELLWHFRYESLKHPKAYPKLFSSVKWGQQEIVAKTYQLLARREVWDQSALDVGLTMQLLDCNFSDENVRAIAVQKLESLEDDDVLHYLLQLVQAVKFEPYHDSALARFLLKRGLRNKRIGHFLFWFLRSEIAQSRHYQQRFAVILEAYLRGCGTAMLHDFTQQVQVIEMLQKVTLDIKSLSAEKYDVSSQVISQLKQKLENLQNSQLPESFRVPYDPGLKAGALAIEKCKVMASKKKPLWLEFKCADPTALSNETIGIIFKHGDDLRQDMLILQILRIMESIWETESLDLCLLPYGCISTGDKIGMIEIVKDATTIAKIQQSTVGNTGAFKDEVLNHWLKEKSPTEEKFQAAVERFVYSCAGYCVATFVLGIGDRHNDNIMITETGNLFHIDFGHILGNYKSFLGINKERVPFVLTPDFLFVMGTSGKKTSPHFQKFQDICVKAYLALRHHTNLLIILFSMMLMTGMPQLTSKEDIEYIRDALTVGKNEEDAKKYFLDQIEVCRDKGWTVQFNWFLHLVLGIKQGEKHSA
T2 sequence (O00329 whole entry): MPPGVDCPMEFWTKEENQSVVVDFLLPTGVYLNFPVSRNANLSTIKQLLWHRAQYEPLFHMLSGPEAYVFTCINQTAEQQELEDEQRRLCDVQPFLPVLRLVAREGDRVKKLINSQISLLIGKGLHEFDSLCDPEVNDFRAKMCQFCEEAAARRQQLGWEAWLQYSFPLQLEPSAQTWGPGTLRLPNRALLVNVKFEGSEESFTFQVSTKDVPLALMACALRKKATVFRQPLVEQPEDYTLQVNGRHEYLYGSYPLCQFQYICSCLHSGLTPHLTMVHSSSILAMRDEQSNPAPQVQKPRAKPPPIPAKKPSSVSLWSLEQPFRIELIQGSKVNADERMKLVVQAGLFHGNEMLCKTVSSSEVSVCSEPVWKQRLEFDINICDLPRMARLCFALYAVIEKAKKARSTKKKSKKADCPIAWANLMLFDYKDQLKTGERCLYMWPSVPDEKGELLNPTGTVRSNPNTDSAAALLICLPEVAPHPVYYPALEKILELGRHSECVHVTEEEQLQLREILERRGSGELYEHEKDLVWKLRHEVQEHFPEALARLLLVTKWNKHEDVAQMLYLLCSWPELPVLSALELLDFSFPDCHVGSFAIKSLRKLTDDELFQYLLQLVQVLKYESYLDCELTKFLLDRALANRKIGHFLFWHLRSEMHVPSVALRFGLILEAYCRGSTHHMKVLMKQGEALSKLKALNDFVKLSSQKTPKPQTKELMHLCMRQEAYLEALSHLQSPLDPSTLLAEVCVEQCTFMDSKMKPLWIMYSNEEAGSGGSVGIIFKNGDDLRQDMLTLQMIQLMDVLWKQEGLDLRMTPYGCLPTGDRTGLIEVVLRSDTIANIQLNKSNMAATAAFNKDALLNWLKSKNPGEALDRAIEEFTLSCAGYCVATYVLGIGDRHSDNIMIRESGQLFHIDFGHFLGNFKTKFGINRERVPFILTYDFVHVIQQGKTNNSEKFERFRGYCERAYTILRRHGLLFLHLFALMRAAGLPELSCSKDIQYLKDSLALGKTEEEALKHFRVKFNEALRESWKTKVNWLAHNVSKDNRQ
T2 sequence (P27986 whole entry partner): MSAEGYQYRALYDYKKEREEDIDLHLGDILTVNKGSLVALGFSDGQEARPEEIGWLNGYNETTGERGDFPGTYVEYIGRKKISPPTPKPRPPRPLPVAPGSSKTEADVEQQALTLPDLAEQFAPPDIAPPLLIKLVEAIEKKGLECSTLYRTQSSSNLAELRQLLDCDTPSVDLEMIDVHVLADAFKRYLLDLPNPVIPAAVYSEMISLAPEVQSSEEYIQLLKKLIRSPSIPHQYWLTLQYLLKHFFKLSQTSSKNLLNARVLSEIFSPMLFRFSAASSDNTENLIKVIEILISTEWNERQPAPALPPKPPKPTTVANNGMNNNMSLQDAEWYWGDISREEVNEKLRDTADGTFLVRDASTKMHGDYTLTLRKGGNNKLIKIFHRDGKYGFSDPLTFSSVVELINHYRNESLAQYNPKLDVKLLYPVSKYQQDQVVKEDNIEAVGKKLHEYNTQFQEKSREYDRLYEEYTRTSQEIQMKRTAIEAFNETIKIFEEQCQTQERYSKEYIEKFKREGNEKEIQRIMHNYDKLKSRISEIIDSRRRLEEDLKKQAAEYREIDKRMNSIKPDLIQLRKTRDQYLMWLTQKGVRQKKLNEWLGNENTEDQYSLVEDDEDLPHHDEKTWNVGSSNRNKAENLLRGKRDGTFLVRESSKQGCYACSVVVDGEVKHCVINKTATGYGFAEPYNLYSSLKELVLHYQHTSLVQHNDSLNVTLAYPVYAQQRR
T1 sequence (P42338 whole entry): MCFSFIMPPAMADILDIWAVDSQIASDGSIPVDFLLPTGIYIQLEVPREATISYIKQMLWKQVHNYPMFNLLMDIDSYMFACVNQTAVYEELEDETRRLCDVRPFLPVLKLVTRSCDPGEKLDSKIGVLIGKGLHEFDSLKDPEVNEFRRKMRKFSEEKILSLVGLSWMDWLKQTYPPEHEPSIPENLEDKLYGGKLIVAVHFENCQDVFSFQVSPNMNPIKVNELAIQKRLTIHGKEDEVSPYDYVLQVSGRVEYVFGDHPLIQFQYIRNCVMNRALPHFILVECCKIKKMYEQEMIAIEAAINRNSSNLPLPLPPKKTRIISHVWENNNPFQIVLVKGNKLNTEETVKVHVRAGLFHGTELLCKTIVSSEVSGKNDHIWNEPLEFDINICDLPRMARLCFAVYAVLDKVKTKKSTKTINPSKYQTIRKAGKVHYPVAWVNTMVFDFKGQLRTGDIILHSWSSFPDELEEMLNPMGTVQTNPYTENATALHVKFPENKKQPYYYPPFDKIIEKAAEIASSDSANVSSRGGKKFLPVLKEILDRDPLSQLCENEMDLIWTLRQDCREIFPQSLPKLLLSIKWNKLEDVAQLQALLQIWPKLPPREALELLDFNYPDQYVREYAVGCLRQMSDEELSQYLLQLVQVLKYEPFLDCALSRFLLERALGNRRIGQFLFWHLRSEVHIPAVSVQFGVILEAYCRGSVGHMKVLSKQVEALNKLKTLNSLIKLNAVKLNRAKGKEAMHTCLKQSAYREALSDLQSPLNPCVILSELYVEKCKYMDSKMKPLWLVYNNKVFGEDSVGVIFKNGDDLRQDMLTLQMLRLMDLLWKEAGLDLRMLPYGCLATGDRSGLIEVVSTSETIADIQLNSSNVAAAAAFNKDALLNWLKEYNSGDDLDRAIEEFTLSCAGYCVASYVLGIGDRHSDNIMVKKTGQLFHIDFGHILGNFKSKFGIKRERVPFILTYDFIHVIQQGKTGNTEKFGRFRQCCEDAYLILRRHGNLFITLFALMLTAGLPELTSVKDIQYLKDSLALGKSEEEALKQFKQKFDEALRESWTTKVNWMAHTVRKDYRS
T1 sequence (P27986 whole entry partner): as the sequence (P27986 whole entry partner) above

IC50 ([1]; Table 2a, same assay) [nM]	IC50 ([2]; Table 2a, same assay) [nM]	IC50 ([3]; Table 2a, same assay) [nM]	IC50 [1, 4] [nM]	IC50 [2, 4] [nM]	IC50 [3] [nM]	IC50 [3, 4] [nM]	Compound
2	3	7500	–	–	–	–	N#Cc1c(N)nc(N)nc1N[C@H](c1nc2c(C(F)F)cc(F)cc2c(=O)n1-c1cc[nH]n1)C1CC1 [Compound 143, (S)-2,4-diamino-6-((cyclopropyl(8-(difluoromethyl)-6-fluoro-4-oxo-3-(1H-pyrazol-3-yl)-3,4-dihydroquinazolin-2-yl)methyl)amino)pyrimidine-5-carbonitrile]
6	4	1300	–	–	–	–	C[C@H](Nc1nc(N)nc(C(F)F)c1C#N)c1nc2c(F)ccc(Cl)c2c(=O)n1-c1cc[nH]n1 [Compound 185, (S)-2-amino-4-((1-(5-chloro-8-fluoro-4-oxo-3-(1H-pyrazol-3-yl)-3,4-dihydroquinazolin-2-yl)ethyl)amino)-6-(difluoromethyl)pyrimidine-5-carbonitrile]
–	–	–	20	5	> 10000	–	CC[C@H](Nc1ncnc2scnc12)c1nc2c(C#N)cccc2c(=O)n1-c1cc[nH]n1 [Compound 74, (S)-4-oxo-3-(1H-pyrazol-3-yl)-2-(1-(thiazolo[5,4-d]pyrimidin-7-ylamino)propyl)-3,4-dihydroquinazoline-8-carbonitrile]
49	12	5200	–	–	–	–	Nc1nc(N)c(Cl)c(N[C@H](c2nc3ccc(F)c(Cl)c3c(=O)n2-c2cc[nH]n2)C2CC2)n1 [Compound 261, (S)-5-chloro-2-(cyclopropyl((2,6-diamino-5-chloropyrimidin-4-yl)amino)methyl)-6-fluoro-3-(1H-pyrazol-3-yl)quinazolin-4(3H)-one]
–	–	–	84	10	> 10000	–	CC[C@H](Nc1ncnc2cccnc12)c1nc2c(Cl)ccc(Cl)c2c(=O)n1-c1cc[nH]n1 [Compound 44, (S)-5,8-dichloro-3-(1H-pyrazol-3-yl)-2-(1-(pyrido[3,2-d]pyrimidin-4-ylamino)propyl)quinazolin-4(3H)-one]
29	26	2300	–	–	–	–	N#Cc1c(N[C@H](c2nc3cccc(C(F)F)c3c(=O)n2-c2cc[nH]n2)C2CC2)nc(N)nc1C(F)F [Compound 177, (S)-2-amino-4-((cyclopropyl(5-(difluoromethyl)-4-oxo-3-(1H-pyrazol-3-yl)-3,4-dihydroquinazolin-2-yl)methyl)amino)-6-(difluoromethyl)pyrimidine-5-carbonitrile]
–	–	–	16	9	–	3800	CC[C@H](Nc1nc(N)nc(C)c1C#N)c1nc2c(C#N)cccc2c(=O)n1-c1cn[nH]c1 [Compound 93, (S)-2-(1-((2-amino-5-cyano-6-methylpyrimidin-4-yl)amino)propyl)-4-oxo-3-(1H-pyrazol-4-yl)-3,4-dihydroquinazoline-8-carbonitrile]
–	–	–	150	9	–	3500	CC[C@H](Nc1nc(N)nc(N)c1C#N)c1nc2cccc(Cl)c2c(=O)n1-c1cc(CCCOC)[nH]n1 [Compound 49, (S)-2,4-diamino-6-((1-(5-chloro-3-(5-(3-methoxypropyl)-1H-pyrazol-3-yl)-4-oxo-3,4-dihydroquinazolin-2-yl)propyl)amino)pyrimidine-5-carbonitrile]
0.9	1	170	–	–	–	–	N#Cc1c(N)nc(N)nc1N[C@H](c1nc2c(Cl)cc(F)cc2c(=O)n1-c1cn[nH]c1)C1CC1 [Compound 269, (S)-2,4-diamino-6-(((8-chloro-6-fluoro-4-oxo-3-(1H-pyrazol-4-yl)-3,4-dihydroquinazolin-2-yl)(cyclopropyl)methyl)amino)pyrimidine-5-carbonitrile]
–	–	–	1	1	–	600	N#Cc1c(N)nc(N)nc1N[C@H](c1nc2c(Cl)ccc(Cl)c2c(=O)n1-c1cc[nH]n1)C1CC1 [Compound 32, (S)-2,4-diamino-6-((cyclopropyl(5,8-dichloro-4-oxo-3-(1H-pyrazol-3-yl)-3,4-dihydroquinazolin-2-yl)methyl)amino)pyrimidine-5-carbonitrile]
–	–	–	4	0.5	–	4000	C[C@H](Nc1ncnc(N)c1C#Cc1ccc(F)cn1)c1nc2cccc(Cl)c2c(=O)n1-c1cc[nH]n1 [Compound 72, (S)-2-(1-((6-amino-5-((5-fluoropyridin-2-yl)ethynyl)pyrimidin-4-yl)amino)ethyl)-5-chloro-3-(1H-pyrazol-3-yl)quinazolin-4(3H)-one]
–	–	–	88	13	–	1600	CC[C@H](Nc1ncnc2cccnc12)c1nc2c(Cl)ccc(Cl)c2c(=O)n1-c1cn[nH]c1 [Compound 41, (S)-5,8-dichloro-3-(1H-pyrazol-4-yl)-2-(1-(pyrido[3,2-d]pyrimidin-4-ylamino)propyl)quinazolin-4(3H)-one]
65	77	> 10000	–	–	–	–	C[C@@H](Nc1nc(N)nc(N)c1Cl)c1nc2cccc(C(F)F)c2c(=O)n1-c1cc[nH]n1 [Compound 181, (R)-2-(1-((2,6-diamino-5-chloropyrimidin-4-yl)amino)ethyl)-5-(difluoromethyl)-3-(1H-pyrazol-3-yl)quinazolin-4(3H)-one]
19	13	> 10000	–	–	–	–	C[C@@H](Nc1nc(N)nc(N)c1C#N)c1nc2c(Cl)cc(F)cc2c(=O)n1-c1cc[nH]n1 [Compound 175, (R)-2,4-diamino-6-((1-(8-chloro-6-fluoro-4-oxo-3-(1H-pyrazol-3-yl)-3,4-dihydroquinazolin-2-yl)ethyl)amino)pyrimidine-5-carbonitrile]
–	–	–	71	28	> 10000	–	Nc1nc(N)c(Cl)c(N[C@H](c2nc3cccc(F)c3c(=O)n2-c2cc[nH]n2)C2CC2)n1 [Compound 10, (S)-2-(cyclopropyl((2,6-diamino-5-chloropyrimidin-4-yl)amino)methyl)-5-fluoro-3-(1H-pyrazol-3-yl)quinazolin-4(3H)-one]
120	26	5700	–	–	–	–	CCC[C@H](Nc1nc(N)nc(N)c1Cl)c1nc2cccc(Cl)c2c(=O)n1-c1c[nH]cn1 [Compound 282, (S)-5-chloro-2-(1-((2,6-diamino-5-chloropyrimidin-4-yl)amino)butyl)-3-(1H-imidazol-4-yl)quinazolin-4(3H)-one]
10	6	2700	–	–	–	–	Nc1nc(N)c(Cl)c(N[C@H](c2nc3cccc(C(F)F)c3c(=O)n2-c2cc[nH]n2)C2CC2)n1 [Compound 215, (S)-2-(cyclopropyl((2,6-diamino-5-chloropyrimidin-4-yl)amino)methyl)-5-(difluoromethyl)-3-(1H-pyrazol-3-yl)quinazolin-4(3H)-one]
3200	310	> 10000	–	–	–	–	Cc1c[nH]nc1-n1c([C@@H](Nc2nc(N)nc(N)c2Cl)C2CC2)nc2c(C#N)cccc2c1=O [Compound 204, (S)-2-(cyclopropyl((2,6-diamino-5-chloropyrimidin-4-yl)amino)methyl)-3-(4-methyl-1H-pyrazol-3-yl)-4-oxo-3,4-dihydroquinazoline-8-carbonitrile]
1	0.9	2700	–	–	–	–	C[C@H](Nc1nc(N)nc(N)c1C#N)c1nc2c(C#N)cc(F)cc2c(=O)n1-c1cc[nH]n1 [Compound 272, (S)-2-(1-((2,6-diamino-5-cyanopyrimidin-4-yl)amino)ethyl)-6-fluoro-4-oxo-3-(1H-pyrazol-3-yl)-3,4-dihydroquinazoline-8-carbonitrile]
0.8	0.3	230	–	–	–	–	C[C@H](Nc1nc(N)nc(N)c1C#N)c1nc2c(Cl)ccc(Cl)c2c(=O)n1-c1c[nH]cn1 [Compound 286, (S)-2,4-diamino-6-((1-(5,8-dichloro-3-(1H-imidazol-4-yl)-4-oxo-3,4-dihydroquinazolin-2-yl)ethyl)amino)pyrimidine-5-carbonitrile]
–	–	–	730	150	> 10000	–	C[C@H](Nc1ncnc(N)c1C#N)c1nc2cccc(Cl)c2c(=O)n1-c1cc(C(F)(F)F)[nH]n1 [Compound 6, (S)-4-amino-6-((1-(5-chloro-4-oxo-3-(5-(trifluoromethyl)-1H-pyrazol-3-yl)-3,4-dihydroquinazolin-2-yl)ethyl)amino)pyrimidine-5-carbonitrile]
18	21	> 10000	–	–	–	–	N#Cc1cc(F)cc2c(=O)n(-c3cc[nH]n3)c([C@@H](Nc3nc(N)nc(N)c3Cl)C3CC3)nc12 [Compound 273, (S)-2-(cyclopropyl((2,6-diamino-5-chloropyrimidin-4-yl)amino)methyl)-6-fluoro-4-oxo-3-(1H-pyrazol-3-yl)-3,4-dihydroquinazoline-8-carbonitrile]

Compound	IC50 ([1]; Table 2a, same assay) [nM]	IC50 ([2]; Table 2a, same assay) [nM]	IC50 ([3]; Table 2a, same assay) [nM]	IC50 [1, 4] [nM]	IC50 [2, 4] [nM]	IC50 [3] [nM]	IC50 [3, 4] [nM]
C[C@H](Nc1nc(N)nc(N)c1Cl)c1nc2ccccc2c(=O)n1-c1cc[nH]n1 [Compound 275, (S)-2-(1-((2,6-diamino-5-chloropyrimidin-4-yl)amino)ethyl)-3-(1H-pyrazol-3-yl)quinazolin-4(3H)-one]	46	40	> 10000	–	–	–	–
Cc1cc(-n2c([C@H](C)Nc3ncnc(N)c3C#N)nc3cccc(Cl)c3c2=O)n[nH]1 [Compound 7, (S)-4-amino-6-((1-(5-chloro-3-(5-methyl-1H-pyrazol-3-yl)-4-oxo-3,4-dihydroquinazolin-2-yl)ethyl)amino)pyrimidine-5-carbonitrile]	–	–	–	200	43	> 10000	–
C[C@H](Nc1ncnc2scnc12)c1nc2cccc(Cl)c2c(=O)n1-c1n[nH]cc1Br [Compound 104, (S)-3-(4-bromo-1H-pyrazol-3-yl)-5-chloro-2-(1-(thiazolo[5,4-d]pyrimidin-7-ylamino)ethyl)quinazolin-4(3H)-one]	–	–	–	61	2	–	500
